Data on 15 compounds can be found in paper PMC7281707, “Antiproliferative and Carbonic Anhydrase II Inhibitory Potential of Chemical Constituents from Lycium shawii and Aloe vera: Evidence from In Silico Target Fishing and In Vitro Testing” (Pharmaceuticals, 2020).

Like-named read-outs stand apart in the source and are kept apart here.

In data set [1] the test system is MDA-MB-231 breast cancer cells. The data set can be described thus: MTT cytotoxic activity assay on MDA-MB-231 breast cancer cells. It is filed as cell-based, human. Conditions: for IC50: MDA-MB-231, MTT, 24 h incubation, read-out: IC50 (Mean ± SEM). As to the method:
(§1) Cytotoxic activity was performed according to the previously described methods. Breast cancer cell lines MDA-MB-231 were maintained in Dulbecco’s modified eagle medium (DMEM, Invitrogen, Carlsbad, CA, USA). The media was supplemented with 10% fetal bovine serum (FBS) and 1% antimycotic antibiotic (Invitrogen, Carlsbad, CA, USA). Cells were cultured in a 5% CO2-humidified atmosphere at 37 °C. Stock solution (5 mg/mL) of 3-(4,5-dimethylthiazol-2-yl)-2,5-diphenyltetrazolium bromide (MTT, Merck, Darmstadt, Hesse, Germany) was prepared in phosphate-buffered saline (PBS).
(§2) Cells were seeded at a density of 1 × 10^4 cells per well in 96-well microtiter culture plates. After overnight incubation, normal growth medium was removed and replaced with either fresh medium (untreated control) or different concentrations of respective compounds in growth medium diluted from a 2 mM stock. After 24 h of incubation, MTT solution was added to each well (0.1 mg/mL in DMEM) and incubated further for 4 h at 37 °C. Upon termination, the supernatant was aspirated and the MTT formazan, formed by metabolically viable cells, was dissolved in a solubilization solution containing DMSO (100 սL) by mixing for 5 min on a gyratory shaker. The absorbance was measured at 540 nm (reference wavelength 690 nm) on an Ultra Multifunctional Microplate Reader (Bio-Rad, Hercules, California, USA). Absorbance of control (without treatment) was considered as 100% cell survival. Each treatment had three replicate wells [56]. The IC50 values of the active compounds were calculated using nonlinear regression through GraphPad Prism 4 software (La Jolla, CA, USA).
On the technique in general: Formazan colour is commonly taken as a measure of viable cells.

Experiment in data set [2]: as above
It is filed as cell-based, human. As to conditions: human, MDA-MB-231 breast cancer cells; for viability at 24 h, 25 µM / viability at 24 h, 75 µM: read-out: cell viability; for viability at 24 h, 75 µM: MDA-MB-231, 75 µM. As to the method: as §1, §2

Data set [3] is described as follows: DPPH radical scavenging (antioxidant) assay. As to conditions: for IC50: isolated compounds. As to the method:
Free radical scavenging activity of the test fractions/compounds was determined by measuring the change in absorbance of DPPH (l, l-Diphenyl-2-picrylhydrazyl radical, Sigma-Aldrich, St Louis, MO, USA) at 515 nm by the microplate reader (SpectraMax M2, Molecular Devices, CA, USA) as previously described. […] The IC50 values of the tested compounds were calculated using nonlinear regression through GraphPad Prism 4 software (La Jolla, CA, USA).
A general note: Loss of DPPH colour is used to gauge radical scavenging.

The next data set concerns the target T1, bovine erythrocyte CA-II (Bos taurus, UniProt P00921).
T1 construct: purified bovine erythrocyte CA-II; purchased Sigma-Aldrich; host or cells: bovine erythrocytes (natural source)
The data set can be described thus: Carbonic anhydrase II inhibition (4-nitrophenyl acetate). It is filed as biochemical. Set-up: % Inhibition: concentration or dose not given beside the values. Conditions: CA-II in vitro; for IC50: read-out: IC50 (µM) ± (SEM). On the procedure: The total reaction volume of 200 µL included 20 µL of test compounds prepared in DMSO, followed by the addition of 140 µL of the HEPES–tris buffer, 20 µL of purified bovine erythrocyte CA-II (0.1 mg/mL) prepared in buffer, and 20 µL of a solution of 4-nitrophenyl acetate. A 20 µL amount of test compound was incubated with the enzyme (EC 4.2.1.1, Sigma-Aldrich, St. Louis, MO, USA) for 15 min in a 96-well flat-bottom plate. The rate of product formation was monitored with the addition of 20 µL of 4-NPA as substrate, prepared in methanol at the final concentration of 0.7 mM, at 25 °C for 30 min with regular intervals of 1 min, by using microplate readers (Bio-Rad, Molecular Devices, CA, USA). HEPES-tris was used as a buffer for the reaction at the final concentration of 20 mM at pH 7.4. The percent inhibition was calculated by using the following formula:% Inhibition = 100 − (OD test well/OD control) × 100

For data set [4] the following is noted: reported earlier by the group; cited from earlier work.

T1 sequence (P00921 whole entry): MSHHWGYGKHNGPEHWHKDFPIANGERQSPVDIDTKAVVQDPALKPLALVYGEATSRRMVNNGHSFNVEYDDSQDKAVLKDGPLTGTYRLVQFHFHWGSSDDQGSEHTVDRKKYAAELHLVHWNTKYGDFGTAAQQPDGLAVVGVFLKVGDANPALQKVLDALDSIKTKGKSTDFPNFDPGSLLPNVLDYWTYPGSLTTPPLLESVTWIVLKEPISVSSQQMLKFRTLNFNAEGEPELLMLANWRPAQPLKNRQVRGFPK

As for `CC1OC(OCc2cc(O)c3c(c2)C(=O)c2cccc(O)c2C3=O)C(O)C(O)C1O` (stereo not shown) [Compound 8, aloe emodine 11-O-rhamnoside], the IC50 (in general, the point on the concentration scale where inhibition reaches its midpoint) in data set [1] (Homo sapiens, MDA-MB-231, 24 h) was 72 µM; in data set [1], 72.2 ± 6.29 µM. Moreover, the viability (usually the share of living cells, or the viability signal relative to a control) at 24 h, 25 µM in data set [2] (MDA-MB-231, 25 µM) was 81 to 89%.
Turning to `Cc1cc(O)c2c(c1)C(=O)c1cc(O)cc(O)c1C2=O` [Compound 6, emodin], in data set [3], the “% Inhibition (1 mM)” value was 71%. The IC50 in data set [3] was determined as 645 ± 1.5 µM; in data set [1] (Homo sapiens, MDA-MB-231, 24 h), 73 µM; in data set [1] it was 73.5 ± 5.89 µM.
On to `O=C1c2cccc(O)c2C(=O)c2c(O)cc(CO)cc21` [Compound 5, aloe emodin], for which, at bovine erythrocyte CA-II, the % Inhibition (in general, the relative decrease from the control value, in per cent) is 86.3%. For the same compound, the IC50 on bovine erythrocyte CA-II was 14.4 ± 1.14 µM; in data set [1] (Homo sapiens, MDA-MB-231, 24 h) it was about 31 µM; in data set [1], 31.4 ± 2.44 µM. In data set [1] (MDA-MB-231, 25 µM), the “loss of cell viability” value was 50.53%.
Take `O=C1c2c(O)cccc2[C@](O)([C@@H]2O[C@H](CO)[C@@H](O)[C@H](O)[C@H]2O)c2cc(CO)cc(O)c21` [Compound 10, 10-hydroxy aloin A]: the half-inhibitory concentration (IC50) in data set [1] (Homo sapiens, MDA-MB-231, 24 h) worked out at 143 ± 12.7 µM. The “cytotoxic effect / cell growth inhibition” value in data set [1] (MDA-MB-231, 25 µM) is given as “growth-promoting effect”. Besides, the viability at 24 h, 75 µM in data set [2] came to 77%.
On the same counts, the results for `C[C@@H]1O[C@@H](OCc2cc(O)c3c(c2)[C@H]([C@@H]2O[C@H](CO)[C@@H](O)[C@H](O)[C@H]2O)c2cccc(O)c2C3=O)[C@H](O)[C@H](O)[C@H]1O` [Compound 11, aloinoside B] are 140 ± 13.1 µM, “no cell growth inhibition” and 64%.
Turning to `C=C1C(=O)OC2C1CCC(O)C1(C)CCC(C)(O)C21` (stereo not shown) [Compound 3, lyciumate], in data set [1] (Homo sapiens, MDA-MB-231, 24 h), the IC50 was found to be 49.4 ± 3.73 µM. Also, the viability at 24 h, 25 µM in data set [2] (MDA-MB-231, 25 µM) lay in the range of 81 to 89%.
As for `C[C@@H]1C[C@@H](O)Cc2cc(O)cc(O)c21` [Compound 14, feroxidin], in data set [3], the “% Inhibition (1 mM)” value was 80% and inhibition was half-maximal at 241 ± 1.5 µM (IC50).
For `CC(=O)Cc1cc(=O)c2c(C)cc(O)c(C3OC(COC(=O)C=Cc4ccc(O)cc4)C(O)C(O)C3O)c2o1` (stereo not shown) [Compound 13, 6′-O-coumaroylaloesin], in that order: 73% and 762 ± 2 µM.
Take `COc1cccc2c1C(=O)c1c(O)c3c(c(O)c1C2=O)C[C@@](O)(C(=O)CO)C[C@@H]3O[C@H]1C[C@H](N)[C@H](O)[C@H](C)O1` [Doxorubicin, reference compound]: in data set [1] (Homo sapiens, MDA-MB-231, 24 h), the half-inhibitory concentration (IC50) came to 3.31 ± 0.19 µM.
`O=C(/C=C/c1ccccc1)O[C@@H]1O[C@H](CO)[C@@H](O)[C@H](O)[C@H]1OC(=O)c1cc(O)c(O)c(O)c1` [Compound 9, lyciumaside]: the IC50 was 76 µM in data set [1] (Homo sapiens, MDA-MB-231, 24 h) and 76.9 ± 7.04 µM in data set [1]. In addition, the “cytotoxic effect / cell growth inhibition” value in data set [1] (MDA-MB-231, 25 µM) was “did not inhibit cell growth significantly”. For the same compound, the “loss of cell viability” value in data set [1] (MDA-MB-231, 100 µM) is recorded as “approximately 70%”. Also, the cell growth inhibition entry in data set [1] (MDA-MB-231, concentrations above 50 µM) is “above 50%”. Moreover, the viability at 24 h, 25 µM in data set [2] (MDA-MB-231, 25 µM) lay within 81 to 89%. Moreover, in data set [4], the “antioxidant IC50” value is on record as 30 µg/mL.
For the compound `C=C1C(=O)O[C@@H]2/C=C(\C)CC/C=C(\C)CC[C@@H]12` [Compound 2, costunolide], at bovine erythrocyte CA-II, the “% Inhibition” value amounted to 84.7% and the half-maximal inhibitory concentration (IC50) was determined as 24.4 µM. Also, the IC50 in data set [1] (Homo sapiens, MDA-MB-231, 24 h) is 42.1 ± 2.98 µM. Moreover, the viability at 24 h, 25 µM in data set [2] (MDA-MB-231, 25 µM) lay within 81 to 89%.
As to `O=C1O[C@H]([C@@H](O)CO)C(O)=C1O` [Ascorbic acid, reference compound], the “Antioxidant % Inhibition” value in data set [3] (concentration = 1 mg/mL) stood at 90%. The “Antioxidant IC50 ± SEM” value in data set [3] (fractions and standard) came to 53 ± 1.32 µg/mL.
As to `C=C1CC[C@H]2C(=C)CC[C@H]3C(=C)C(=O)O[C@@H]3[C@@H]12` [Compound 1, dehydrocostus lactone], on bovine erythrocyte CA-II, the “% Inhibition” value worked out at 33% and the “IC50 (µM) ± (SEM)” value is “inactive”. The “antioxidant activity (in words)” value in data set [3] is recorded as “moderate activity”. Besides, the half-inhibitory concentration (IC50) in data set [1] (Homo sapiens, MDA-MB-231, 24 h) turned out to be 35.4 ± 2.56 µM. In addition, the inhibition at 100 µM in data set [1] (Homo sapiens, MDA-MB-231, 100 µM, read-out: inhibition of cell proliferation) turned out to be 92.1%. In addition, the viability at 24 h, 25 µM in data set [2] (MDA-MB-231, 25 µM) stood at 76%.
Consider `Oc1cc(O)c2c(c1)O[C@H](c1ccc(O)c(O)c1)[C@@H](O)C2` [Compound 4, catechin], for which, in data set [3], the “% Inhibition (1 mM)” value is recorded as 78% and the IC50 worked out at 55 ± 2 µM. In data set [1] (Homo sapiens, MDA-MB-231, 24 h), the half-maximal inhibitory concentration (IC50) is 101 ± 7.09 µM.
On to `COc1cc(=O)oc2cc(O)cc(C)c12` [Compound 12, 7-demethylsiderin], for which, at bovine erythrocyte CA-II, the “% Inhibition” value was 91.2% and the IC50 is 23.3 ± 1.63 µM. In data set [1] (Homo sapiens, MDA-MB-231, 24 h), the IC50 was determined as 60.1 ± 4.82 µM. Besides, the inhibition at 24 h, 25 µM in data set [2] (MDA-MB-231, 25 µM, read-out: cytotoxic effect / cell growth inhibition) was about 14%. Besides, the viability at 24 h, 75 µM in data set [2] is 44%.
